From ChEMBL document CHEMBL5042510, “Structure-Guided Discovery of Aminoquinazolines as Brain-Penetrant and Selective LRRK2 Inhibitors” (J Med Chem, 2022) come the findings set out here.

≈ marks a conversion by molar mass, not a printed value.

The subject of series [1] is Leucine-rich repeat serine/threonine-protein kinase 2 (Homo sapiens), Q5S007 [G2019S]. Briefly: Inhibition of LRRK2 […] mutant expressed in human SH-SY5Y cells assessed as unbound concentration required for inhibition of phosphorylation of LRRK2 at Ser935 residue incubated for 90 mins by MSD assay. Type of series: cell-based.
The next series concerns rat Mdr1a (P-gp). The experiment in a line: Efflux ratio of apparent permeability across basolateral to apical side over apical to basolateral side in rat Mdr1a-transfected pig LLC-PK1 cells at 0.1 to 1 uM measured after 3 hrs by LC/MS/MS analysis. It is filed as ADME, cell-based, Sus scrofa. The conditions noted are these: dose 0.1-1 µM.
A short description of series [2]: Intrinsic clearance in human hepatocytes at 0.3 uM incubated for 90 mins by LC/MS/MS analysis. Type of series: ADME, cell-based, Hepatocyte. The conditions noted are these: read-out: CLH.
Series [3] in a line: Intrinsic clearance in rat hepatocytes at 0.3 uM incubated for 90 mins by LC/MS/MS analysis. It is filed as ADME, cell-based, Hepatocyte. The conditions noted are these: read-out: CLH.
The nature of series [4]: Total plasma clearance in Wistar Han rat at 2 mg/kg, iv by LC-MS/MS analysis. It is filed as ADME, organism-based.
For series [5], the system named is mouse Bcrp. The experiment in a line: Efflux ratio of apparent permeability across basolateral to apical over apical to basolateral side in mouse Bcrp-transfected dog MDCK-II cells at 0.1 to 1 uM measured after 3 hrs by LC/MS/MS analysis. The conditions noted are these: dose 0.1-1 µM. It is filed as ADME, cell-based, Canis lupus familiaris.
Series [6] deals with Voltage-gated inwardly rectifying potassium channel KCNH2 (Homo sapiens, UniProt Q12809). Briefly: Inhibition of human ERG by voltage clamp assay. It is filed as toxicity.
Chain of Voltage-gated inwardly rectifying potassium channel KCNH2 (Q12809 whole entry): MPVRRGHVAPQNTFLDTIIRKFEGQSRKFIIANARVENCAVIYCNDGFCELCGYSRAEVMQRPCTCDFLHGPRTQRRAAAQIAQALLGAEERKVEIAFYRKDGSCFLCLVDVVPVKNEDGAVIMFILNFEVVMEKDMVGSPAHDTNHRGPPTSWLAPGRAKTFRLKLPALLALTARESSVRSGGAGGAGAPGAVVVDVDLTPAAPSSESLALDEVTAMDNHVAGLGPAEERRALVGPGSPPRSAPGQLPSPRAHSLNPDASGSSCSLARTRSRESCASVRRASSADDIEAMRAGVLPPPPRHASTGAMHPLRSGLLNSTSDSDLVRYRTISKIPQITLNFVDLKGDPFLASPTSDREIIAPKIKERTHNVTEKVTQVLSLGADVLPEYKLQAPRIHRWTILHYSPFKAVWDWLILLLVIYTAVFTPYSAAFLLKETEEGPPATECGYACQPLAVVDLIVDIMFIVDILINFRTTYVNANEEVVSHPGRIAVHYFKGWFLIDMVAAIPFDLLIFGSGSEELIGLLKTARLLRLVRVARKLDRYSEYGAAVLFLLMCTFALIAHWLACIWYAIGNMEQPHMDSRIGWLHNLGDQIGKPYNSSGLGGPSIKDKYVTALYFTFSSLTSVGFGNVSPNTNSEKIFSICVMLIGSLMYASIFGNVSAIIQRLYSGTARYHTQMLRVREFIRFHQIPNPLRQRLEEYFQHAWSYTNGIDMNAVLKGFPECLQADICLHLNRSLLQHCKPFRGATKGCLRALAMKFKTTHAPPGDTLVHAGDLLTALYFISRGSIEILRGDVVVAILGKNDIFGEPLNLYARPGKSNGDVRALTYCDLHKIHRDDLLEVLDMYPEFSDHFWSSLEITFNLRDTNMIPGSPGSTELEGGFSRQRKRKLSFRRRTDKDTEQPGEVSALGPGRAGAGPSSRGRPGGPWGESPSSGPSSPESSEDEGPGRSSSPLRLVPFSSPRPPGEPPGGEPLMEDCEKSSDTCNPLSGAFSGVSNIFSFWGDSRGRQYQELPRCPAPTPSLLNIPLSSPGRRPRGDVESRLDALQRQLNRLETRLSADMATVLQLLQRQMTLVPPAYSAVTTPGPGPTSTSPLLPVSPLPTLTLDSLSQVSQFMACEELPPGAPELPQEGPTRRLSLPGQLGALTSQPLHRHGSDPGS
The subject of the next series is Salmonella typhimurium. The experiment in a line: Mutagenicity in Salmonella typhimurium TA100 at 30 to 5000 ug incubated for 48 hrs in presence of liver S9 fraction by AMES test. Type of series: toxicity, organism-based, Salmonella enterica subsp. enterica serovar Typhimurium. The conditions noted are these: s9, 48 h, dose 30-5000 µg.
Series [7] in a line: Total plasma clearance in Beagle dog at 1 mg/kg, iv by LC-MS/MS analysis. It is filed as ADME, organism-based, Canis lupus familiaris.
Series [8] can be described thus: Inhibition of adenosine transporter (unknown origin). Details: species or system Homo sapiens.
A short description of series [9]: Thermodynamic solubility of the compound in FaSSIF measured after 24 hrs by reverse phase UPLC analysis. It is filed as physicochemical. The conditions noted are these: read-out: Therm_solubility.
Series [10] in a line: Toxicity in rat assessed as positive tissue transcriptional score at 40 to 400 mg/kg, po qd administered for 4 days. Type of series: organism-based. The conditions noted are these: in vivo, 96 h, dose 40-400 mg/kg, time 4 day.
The nature of series [11]: Toxicity in rat assessed as induction of liver injury at 40 to 400 mg/kg, po qd administered for 4 days. Type of series: organism-based. The conditions noted are these: in vivo, 96 h, dose 40-400 mg/kg, time 4 day.
In series [12] the test system is mouse Bcrp. Briefly: Apparent permeability in mouse Bcrp-transfected dog MDCK-II cells at 0.1 to 1 uM measured after 3 hrs by LC/MS/MS analysis. It is filed as ADME, cell-based, Canis lupus familiaris. The conditions noted are these: dose 0.1-1 µM.
Series [13] is described as follows: Toxicity in rat assessed as elevation of AhR gene expression at 10 to 75 mg/kg, po bid administered for 4 days. It is filed as organism-based. The conditions noted are these: in vivo, 96 h, dose 10-75 mg/kg, time 4 day.
Series [14] in a line: Toxicity in rat assessed as elevation of inflammatory response related gene expression at 10 to 75 mg/kg, po bid administered for 4 days. Type of series: organism-based. The conditions noted are these: in vivo, 96 h, dose 10-75 mg/kg, time 4 day.
The nature of series [15]: In vivo inhibition of LRRK2 in CD rat assessed as reduction in phosphorylation at Ser935 residue in striatum at 3 mg/kg, po measured after 2 hrs by MSD assay. Type of series: functional.
Series [16] can be described thus: In vivo inhibition of LRRK2 in CD rat assessed as reduction in phosphorylation at Ser935 residue in striatum at 30 mg/kg, po measured after 2 hrs by MSD assay. It is filed as functional.

Chain of Leucine-rich repeat serine/threonine-protein kinase 2 (Homo sapiens), Q5S007 [G2019S] (Q5S007 whole entry G2019S): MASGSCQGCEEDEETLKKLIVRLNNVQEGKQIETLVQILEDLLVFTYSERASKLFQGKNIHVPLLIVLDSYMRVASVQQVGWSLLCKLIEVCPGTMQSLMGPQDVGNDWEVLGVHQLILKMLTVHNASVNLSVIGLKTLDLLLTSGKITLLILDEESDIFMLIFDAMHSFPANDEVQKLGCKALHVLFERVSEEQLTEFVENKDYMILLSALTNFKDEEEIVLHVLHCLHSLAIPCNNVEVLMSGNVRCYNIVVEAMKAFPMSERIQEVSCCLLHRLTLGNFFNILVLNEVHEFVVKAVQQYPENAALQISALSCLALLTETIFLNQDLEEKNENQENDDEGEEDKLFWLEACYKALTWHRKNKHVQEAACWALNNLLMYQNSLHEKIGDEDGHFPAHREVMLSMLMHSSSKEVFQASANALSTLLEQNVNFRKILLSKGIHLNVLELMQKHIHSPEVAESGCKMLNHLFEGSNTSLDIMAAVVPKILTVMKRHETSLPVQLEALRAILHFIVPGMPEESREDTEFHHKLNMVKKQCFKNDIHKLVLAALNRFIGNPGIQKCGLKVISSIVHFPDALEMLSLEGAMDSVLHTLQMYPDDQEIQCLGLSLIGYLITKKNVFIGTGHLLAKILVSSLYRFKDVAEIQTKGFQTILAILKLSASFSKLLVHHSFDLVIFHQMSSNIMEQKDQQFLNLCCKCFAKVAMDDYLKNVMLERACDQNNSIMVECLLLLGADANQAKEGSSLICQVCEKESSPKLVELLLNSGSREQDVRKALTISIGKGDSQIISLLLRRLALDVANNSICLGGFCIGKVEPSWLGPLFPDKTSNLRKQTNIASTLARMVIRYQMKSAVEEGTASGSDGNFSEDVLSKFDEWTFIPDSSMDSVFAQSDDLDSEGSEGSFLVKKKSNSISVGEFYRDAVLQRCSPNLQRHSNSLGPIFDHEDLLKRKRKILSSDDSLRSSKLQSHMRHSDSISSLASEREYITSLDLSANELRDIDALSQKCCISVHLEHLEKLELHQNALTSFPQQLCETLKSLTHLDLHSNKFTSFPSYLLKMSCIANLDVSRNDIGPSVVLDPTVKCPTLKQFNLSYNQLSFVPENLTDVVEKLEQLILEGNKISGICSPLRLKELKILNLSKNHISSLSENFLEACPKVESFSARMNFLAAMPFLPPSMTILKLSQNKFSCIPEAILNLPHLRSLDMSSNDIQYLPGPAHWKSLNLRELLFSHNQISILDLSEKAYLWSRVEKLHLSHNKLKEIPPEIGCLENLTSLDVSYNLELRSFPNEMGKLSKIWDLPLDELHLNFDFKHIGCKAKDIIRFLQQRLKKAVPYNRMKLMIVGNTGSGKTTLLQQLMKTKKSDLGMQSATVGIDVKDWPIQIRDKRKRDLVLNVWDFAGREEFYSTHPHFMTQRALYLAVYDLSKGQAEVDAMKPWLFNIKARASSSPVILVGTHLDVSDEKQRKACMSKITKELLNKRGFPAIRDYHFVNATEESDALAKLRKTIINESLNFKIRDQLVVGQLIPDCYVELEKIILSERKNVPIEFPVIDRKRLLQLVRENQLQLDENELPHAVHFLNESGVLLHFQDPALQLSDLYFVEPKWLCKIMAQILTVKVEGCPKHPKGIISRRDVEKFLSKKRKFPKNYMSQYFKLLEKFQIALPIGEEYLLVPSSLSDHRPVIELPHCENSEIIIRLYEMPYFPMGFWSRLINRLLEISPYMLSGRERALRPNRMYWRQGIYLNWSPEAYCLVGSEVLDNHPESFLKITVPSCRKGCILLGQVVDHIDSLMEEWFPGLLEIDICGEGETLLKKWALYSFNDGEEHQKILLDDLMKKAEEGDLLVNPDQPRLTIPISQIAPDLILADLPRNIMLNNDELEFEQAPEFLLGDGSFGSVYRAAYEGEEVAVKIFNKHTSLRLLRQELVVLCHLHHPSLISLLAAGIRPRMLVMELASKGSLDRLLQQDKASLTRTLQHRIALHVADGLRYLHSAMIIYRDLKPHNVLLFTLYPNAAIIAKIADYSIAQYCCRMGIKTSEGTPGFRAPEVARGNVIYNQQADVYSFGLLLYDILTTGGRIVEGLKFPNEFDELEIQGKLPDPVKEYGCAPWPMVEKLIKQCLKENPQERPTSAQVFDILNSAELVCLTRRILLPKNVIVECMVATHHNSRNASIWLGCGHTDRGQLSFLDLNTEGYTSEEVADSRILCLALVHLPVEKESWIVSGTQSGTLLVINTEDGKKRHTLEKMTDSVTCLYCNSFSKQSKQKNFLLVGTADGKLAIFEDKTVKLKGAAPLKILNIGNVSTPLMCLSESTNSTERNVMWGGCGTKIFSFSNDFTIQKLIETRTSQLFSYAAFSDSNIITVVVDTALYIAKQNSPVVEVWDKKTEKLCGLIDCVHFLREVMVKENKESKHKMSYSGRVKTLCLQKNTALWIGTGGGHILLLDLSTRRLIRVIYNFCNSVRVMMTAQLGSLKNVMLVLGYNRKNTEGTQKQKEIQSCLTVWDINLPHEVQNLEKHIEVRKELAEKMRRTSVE

For the molecule `O[C@H]1COC[C@H]1N1CC[C@@H](c2cc3nc(Nc4cnn([C@@H]5CC5(F)F)c4Cl)ncc3cc2Cl)[C@H](F)C1`, in series [1], the fIC50 amounted to 0.57 nM. Moreover, the results for the efflux ratio at 3 h, up to 1 µM in the series with rat Mdr1a (P-gp) and in the series with mouse Bcrp [5] were 3.7 and 3.8, respectively. The values for the CLint scaled at 0.3 µM in series [2] and in series [3] were 116 mL/min/kg and 248 mL/min/kg, respectively. Moreover, the clearance was 19 mL/min/kg in series [4] and 9 mL/min/kg in [7]. Besides, the IC50 is 9.7 µM in series [6] and 9.6 µM in series [8]. Besides, the Activity entry (with Salmonella typhimurium; in series [10]; in series [11]; in series [13]; in series [14]) was “Non-Toxic” throughout. The solubility thermodynamic at 24 h in series [9] came to 4 µg/mL (≈ 7.36 µM). The Papp at 3 h, up to 1 µM in the series with mouse Bcrp [12] worked out at 28 ×10⁻⁶ cm/s. For the same molecule, in series [15], the inhibition in vivo at 3 mg/kg came out at 32%. Besides, the inhibition in vivo at 30 mg/kg in [16] is 92%.
